Assay results taken from ChEMBL document CHEMBL3046513, “Synthesis, characterization, and biological evaluation of some N-aryl hydrazones and their 2,3-disubstituted-4-thiazolidinone derivatives” (Med Chem Res, 2013).
Values after ≈ are worked out from the molar mass of the structure shown. Active and inactive are the calls of the source. The rule behind the calls is not given here.

Columns and labels:
Candida albicans [1] = test: Antifungal activity against Candida albicans assessed as growth inhibition by serial plate dilution method; type: functional
Bacillus cereus = test: Antibacterial activity against Bacillus cereus assessed as growth inhibition by serial plate dilution method; type: functional
Pseudomonas aeruginosa = test: Antibacterial activity against Pseudomonas aeruginosa ATCC 27853 assessed as growth inhibition by serial plate dilution method; type: functional
Staphylococcus aureus = test: Antibacterial activity against Staphylococcus aureus ATCC 25923 assessed as growth inhibition by serial plate dilution method; type: functional
Escherichia coli = test: Antibacterial activity against Escherichia coli ATCC 25922 assessed as growth inhibition by serial plate dilution method; type: functional
Mus musculus [2] = test: Analgesic activity in Mus musculus […] albino (mouse) assessed as time taken to tail withdrawl at 100 mg/kg, po administered through intragastric tube after 180 min by tail flick test (reference value: 1.363 +/- 0.1297 secs); type: functional
Mus musculus [3] = test: Analgesic activity in Mus musculus […] albino (mouse) assessed as time taken to tail withdrawl at 100 mg/kg, po administered through intragastric tube after 120 min by tail flick test (reference value: 1.363 +/- 0.1297 secs); type: functional
Mus musculus [4] = test: Analgesic activity in Mus musculus […] albino (mouse) assessed as time taken to tail withdrawl at 100 mg/kg, po administered through intragastric tube after 60 min by tail flick test (reference value: 1.363 +/- 0.1297 secs); type: functional
Rattus norvegicus [5] = test: Anti-inflammatory activity in Rattus norvegicus (rat) assessed as decrease in carrageenan-induced paw edema at 100 mg/kg, po administered 30 min prior to carrageenan challenge measured after 180 min (reference value: 2.275 +/- 0.1181 mm); type: functional
Rattus norvegicus [6] = test: Anti-inflammatory activity in Rattus norvegicus (rat) assessed as decrease in carrageenan-induced paw edema at 100 mg/kg, po administered 30 min prior to carrageenan challenge measured after 120 min (reference value: 2.375 +/- 0.1436 mm); type: functional
Rattus norvegicus [7] = test: Anti-inflammatory activity in Rattus norvegicus (rat) assessed as decrease in carrageenan-induced paw edema at 100 mg/kg, po administered 30 min prior to carrageenan challenge measured after 60 min (reference value: 2.175 +/- 0.1797 mm); type: functional
[8] = tested on: Radical scavenging activity; test: Antioxidant activity assessed as inhibition of DPPH radical generation at 200 to 800 ug/mL after 20 min by spectrophotometric analysis; type: functional
Candida albicans [9] = test: Ratio of fluconazole MIC to compound MIC for Candida albicans; type: functional
Mus musculus [10] = test: Acute toxicity in Mus musculus Swiss albino (mouse) assessed as behavioral changes at 500 to 2500 mg/kg, po after 4 to 24 hr; type: organism-based; design: route oral; conditions: in vivo
Mus musculus [11] = test: Acute toxicity in Mus musculus Swiss albino (mouse) assessed as mortality at 500 to 2500 mg/kg, po after 4 to 24 hr; type: organism-based; design: route oral; conditions: in vivo
[12] = tested on: Radical scavenging activity; test: Antioxidant activity assessed as inhibition of DPPH radical generation at 800 ug/mL after 20 min by spectrophotometric analysis relative to control; type: functional
[13] = tested on: Radical scavenging activity; test: Antioxidant activity assessed as inhibition of DPPH radical generation at 400 ug/mL after 20 min by spectrophotometric analysis relative to control; type: functional
[14] = tested on: Radical scavenging activity; test: Antioxidant activity assessed as inhibition of DPPH radical generation at 200 ug/mL after 20 min by spectrophotometric analysis relative to control; type: functional

Structure (SMILES) | MIC (Candida albicans [1]) | MIC (Bacillus cereus) | MIC (Pseudomonas aeruginosa) | MIC (Staphylococcus aureus) | MIC (Escherichia coli) | Time (Mus musculus [2]) | Time (Mus musculus [3]) | Time (Mus musculus [4]) | Activity (Rattus norvegicus [5]) | Activity (Rattus norvegicus [6]) | Activity (Rattus norvegicus [7]) | inhibition [8] | Ratio (Candida albicans [9]) | Activity (Mus musculus [10]) | Activity (Mus musculus [11]) | inhibition [12] | inhibition [13] | inhibition [14]
COc1ccc(Br)c(C(=O)N/N=C\c2ccccc2)c1 | 1.56 µg/mL (≈ 4.69 µM) | 12.5 µg/mL (≈ 37.5 µM) | 12.5 µg/mL (≈ 37.5 µM) | 12.5 µg/mL (≈ 37.5 µM) | 12.5 µg/mL (≈ 37.5 µM) | – | – | – | – | – | – | – | 5 | Non-toxic | Non-toxic | – | – | –
COc1ccc(Br)c(C(=O)NN2C(=O)CSC2c2ccc(O)c(OC)c2)c1 (configuration not stated) | 12.5 µg/mL (≈ 27.6 µM) | 6.25 µg/mL (≈ 13.8 µM) | 6.25 µg/mL (≈ 13.8 µM) | 6.25 µg/mL (≈ 13.8 µM) | 12.5 µg/mL (≈ 27.6 µM) | 2.841 s | 3.334 s | 3.468 s | 1.78 mm | 1.77 mm | 1.528 mm | inactive | – | – | – | – | – | –
COc1ccc(Br)c(C(=O)NN2C(=O)CSC2c2cccc(Cl)c2)c1 (configuration not stated) | 1.56 µg/mL (≈ 3.54 µM) | 6.25 µg/mL (≈ 14.1 µM) | 6.25 µg/mL (≈ 14.1 µM) | 12.5 µg/mL (≈ 28.3 µM) | 12.5 µg/mL (≈ 28.3 µM) | 2.438 s | 2.8 s | 2.825 s | 1.6 mm | 1.65 mm | 1.575 mm | – | 5 | Non-toxic | Non-toxic | 59.5% | 58.5% | 57.6%
COc1ccc(Br)c(C(=O)NN2C(=O)CSC2c2ccc(Cl)cc2)c1 (configuration not stated) | 12.5 µg/mL (≈ 28.3 µM) | 12.5 µg/mL (≈ 28.3 µM) | 3.12 µg/mL (≈ 7.07 µM) | 12.5 µg/mL (≈ 28.3 µM) | 12.5 µg/mL (≈ 28.3 µM) | 2.463 s | 2.788 s | 2.613 s | 2.25 mm | 2.25 mm | 2.15 mm | – | – | – | – | 58.2% | 58.2% | 57.5%

More lines, main results first:

MIC (Candida albicans [1]) | MIC (Bacillus cereus) | MIC (Pseudomonas aeruginosa) | MIC (Staphylococcus aureus) | MIC (Escherichia coli) | Structure (SMILES) | Time (Mus musculus [2]) | Time (Mus musculus [3]) | Time (Mus musculus [4]) | Activity (Rattus norvegicus [5]) | Activity (Rattus norvegicus [6]) | Activity (Rattus norvegicus [7]) | inhibition [8] | Ratio (Candida albicans [9]) | Activity (Mus musculus [10]) | Activity (Mus musculus [11]) | inhibition [12] | inhibition [13] | inhibition [14]
3.12 µg/mL (≈ 7.38 µM) | 12.5 µg/mL (≈ 29.5 µM) | 6.25 µg/mL (≈ 14.8 µM) | 6.25 µg/mL (≈ 14.8 µM) | 12.5 µg/mL (≈ 29.5 µM) | COc1ccc(Br)c(C(=O)NN2C(=O)CSC2c2ccccc2O)c1 (configuration not stated) | 2.235 s | 3.623 s | 3.546 s | 2.081 mm | 1.98 mm | 1.88 mm | inactive | – | – | – | – | – | –
6.25 µg/mL (≈ 14.3 µM) | 6.25 µg/mL (≈ 14.3 µM) | 6.25 µg/mL (≈ 14.3 µM) | 6.25 µg/mL (≈ 14.3 µM) | 12.5 µg/mL (≈ 28.6 µM) | COc1ccc(Br)c(C(=O)NN2C(=O)CSC2c2ccccc2OC)c1 (configuration not stated) | 2.238 s | 2.075 s | 2.175 s | 2.075 mm | 1.95 mm | 1.825 mm | inactive | – | – | – | – | – | –
6.25 µg/mL (≈ 14.8 µM) | 12.5 µg/mL (≈ 29.7 µM) | 12.5 µg/mL (≈ 29.7 µM) | 6.25 µg/mL (≈ 14.8 µM) | 12.5 µg/mL (≈ 29.7 µM) | COc1ccc(Br)c(C(=O)NN2C(=O)CSC2c2ccc(C)cc2)c1 (configuration not stated) | 2.225 s | 2.088 s | 2.038 s | 1.95 mm | 1.9 mm | 1.525 mm | inactive | – | – | – | – | – | –
